Measurements from the supplement of paper PMC11061612.

How the values were obtained:
Experiment in all cases: Bliss excess, mean over the matrix (fraction); higher = more synergy
[1] = system: HL-60 (Acute Myeloid Leukemia)
Outline: (§1)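 Bliss excess equals the observed combination effect minus the expected value EA + EB − EA·EB, where EA and EB are the effects of each agent alone. Combination Emax is the second-highest inhibition within the matrix. Inhibition was scaled from CellTiter-Glo 2.0 luminescence, with 0 set by vehicle wells and 1 by blank wells, after 72 hours of two-drug dosing of cells plated in 1536-well plates.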

WM-115 (Melanoma) = system: WM-115 (Melanoma)
Outline: as §1

LN-18 (Glioblastoma) = system: LN-18 (Glioblastoma)
Outline: as §1

[2] = system: KYSE-180 (Esophageal Squamous Cell Carcinoma)
Outline: as §1

[3] = system: MFM-223 (Breast Carcinoma)
Outline: as §1

[4] = system: SU-DHL-8 (B-Cell Non-Hodgkin's Lymphoma)
Outline: as §1

CHP-212 (Neuroblastoma) = system: CHP-212 (Neuroblastoma)
Outline: as §1

[5] = system: DiFi (Colorectal Carcinoma)
Outline: as §1

ES8 (Ewing's Sarcoma) = system: ES8 (Ewing's Sarcoma)
Outline: as §1

[6] = system: COLO-678 (Colorectal Carcinoma)
Outline: as §1

[7] = system: MOLT-16 (T-Lymphoblastic Leukemia)
Outline: as §1

U251 (Low Grade Glioma) = system: U251 (Low Grade Glioma)
Outline: as §1

[8] = system: SR (Other Blood Carcinomas)
Outline: as §1

[9] = system: MS751 (Cervical Carcinoma)
Outline: as §1

[10] = system: P12-ICHIKAWA (T-Lymphoblastic Leukemia)
Outline: as §1

[11] = system: KCL-22 (Chronic Myelogenous Leukemia)
Outline: as §1

[12] = system: PANC-08-13 (Pancreatic Carcinoma)
Outline: as §1

ES1 (Ewing's Sarcoma) = system: ES1 (Ewing's Sarcoma)
Outline: as §1

NCI-H2818 (Mesothelioma) = system: NCI-H2818 (Mesothelioma)
Outline: as §1

[13] = system: BL-41 (Burkitt's Lymphoma)
Outline: as §1

Structure (SMILES)	Bliss excess [1]	Bliss excess (WM-115 (Melanoma))	Bliss excess (LN-18 (Glioblastoma))	Bliss excess [2]	Bliss excess [3]	Bliss excess [4]	Bliss excess (CHP-212 (Neuroblastoma))	Bliss excess [5]	Bliss excess (ES8 (Ewing's Sarcoma))	Bliss excess [6]	Bliss excess [7]	Bliss excess (U251 (Low Grade Glioma))	Bliss excess [8]	Bliss excess [9]	Bliss excess [10]	Bliss excess [11]	Bliss excess [12]	Bliss excess (ES1 (Ewing's Sarcoma))	Bliss excess (NCI-H2818 (Mesothelioma))	Bliss excess [13]
CC1(C)CCC(CN2CCN(c3ccc(C(=O)NS(=O)(=O)c4ccc(NCC5CCOCC5)c([N+](=O)[O-])c4)c(Oc4cnc5[nH]ccc5c4)c3)CC2)=C(c2ccc(Cl)cc2)C1 [Venetoclax] + COc1cc(Nc2ncc3c(n2)-c2ccc(Cl)cc2C(c2c(F)cccc2OC)=NC3)ccc1C(=O)O [Alisertib] (first compound max 1 µM, 7x7, partner max 10 µM)	0.0894	-0.0539	0.0481	0.0114	-0.0077	-0.0869	-0.0654	0.0661	-0.104	-0.0712	0.0623	0.0027	0.013	0.0342	-0.0398	0.163	-0.032	0.0385	-0.0547	-0.0436
Cc1c2c(nn1C)CSCc1cc(n(C)n1)CSc1cc(c3ccccc3c1)OCCCc1c(C(=O)O)n(C)c3c-2c(Cl)ccc13 [AZD5991] + CN(C)CCCOc1ccc(-c2ccc3ncc4c(c3c2)n(C2CCOCC2)c(=O)n4C)cn1 [AZD0156] (first compound max 1 µM, 7x7, partner max 1 µM)	0.006	-0.0136	0.0444	0.0286	-0.0038	-0.0377	-0.0538	-0.0112	0.0224	-0.0427	-0.0302	0.0334	0.0246	0.0099	0.108	0.0191	-0.0158	0.0092	-0.0052	0.0168
NC1(C(=O)N[C@@H](CCO)c2ccc(Cl)cc2)CCN(c2ncnc3[nH]ccc23)CC1 [Capivasertib] + COc1nnc2ccc(N3CCC(c4ccc(OCCN5CCN(C)C(=O)[C@H]5C)cc4)CC3)nn12 [AZD5153] (first compound max 10 µM, 7x7, partner max 1 µM)	0.0346	0.0031	0.0494	0.0387	-0.0302	0.0407	0.0469	-0.056	0.0894	-0.0688	0.0458	0.0284	-0.0166	-0.0065	0.0553	0.0441	0.0483	0.035	0.0025	0.036
NC1(C(=O)N[C@@H](CCO)c2ccc(Cl)cc2)CCN(c2ncnc3[nH]ccc23)CC1 [Capivasertib] + C[C@@H]1COCCN1C2=NC(=NC(=C2)C3(CC3)[S@](=N)(=O)C)C4=C5C=CNC5=NC=C4 [AZD6738] (first compound max 10 µM, 7x7, partner max 10 µM)	-0.04	-0.0502	-0.0463	-0.0866	-0.0626	-0.0045	-0.0156	-0.122	0.0038	-0.051	-0.0161	-0.0006	0.016	-0.0156	0.0043	0.0044	0.0128	-0.0448	-0.0315	-0.0552
CN(CCO)CC[C@H](CSc1ccccc1)Nc1ccc(S(=O)(=O)NC(=O)c2ccc(N3CCC([C@@H](O)c4ccccc4-c4ccc(Cl)cc4)CC3)cc2)cc1S(=O)(=O)C(F)(F)F [AZD4320] + CCN(CCO)CCCOc1ccc2c(Nc3cc(CC(=O)Nc4cccc(F)c4)[nH]n3)ncnc2c1 [AZD2811] (first compound max 1 µM, 7x7, partner max 1 µM)	-0.0281	-0.0003	-0.0187	0.0189	-0.0022	-0.013	0.0016	-0.013	0.0276	-0.0247	-0.0049	0.0287	0.0343	0.0064	0.0103	0.0572	-0.0166	0.142	-0.0555	-0.0172
CC1(C)CCC(CN2CCN(c3ccc(C(=O)NS(=O)(=O)c4ccc(NCC5CCOCC5)c([N+](=O)[O-])c4)c(Oc4cnc5[nH]ccc5c4)c3)CC2)=C(c2ccc(Cl)cc2)C1 [Venetoclax] + Cn1cnc2c(F)c(Nc3ccc(Br)cc3Cl)c(C(=O)NOCCO)cc21 [Selumetinib] (first compound max 1 µM, 7x7, partner max 3 µM)	0.0694	-0.0472	-0.0088	-0.0128	-0.006	-0.0738	-0.0011	-0.0967	-0.0411	-0.0298	0.016	-0.0521	0.0026	0.0072	0.0233	-0.0032	-0.0627	-0.0068	-0.0491	0.0065
NC1(C(=O)N[C@@H](CCO)c2ccc(Cl)cc2)CCN(c2ncnc3[nH]ccc23)CC1 [Capivasertib] + CCN(CCO)CCCOc1ccc2c(Nc3cc(CC(=O)Nc4cccc(F)c4)[nH]n3)ncnc2c1 [AZD2811] (first compound max 10 µM, 7x7, partner max 1 µM)	-0.0819	-0.0223	-0.022	-0.0303	-0.0072	0.0078	-0.008	-0.0475	-0.0394	-0.0218	-0.0183	0.0469	-0.0053	0.0515	-0.014	0.0544	-0.0015	-0.0207	-0.0676	-0.123
Cc1c2c(nn1C)CSCc1cc(n(C)n1)CSc1cc(c3ccccc3c1)OCCCc1c(C(=O)O)n(C)c3c-2c(Cl)ccc13 [AZD5991] + C1CN(CCC1(C(=O)N[C@@H](CCO)C2=CC=C(C=C2)Cl)N)C3=NC=NC4=C3C=CN4 [Capivasertib] (first compound max 1 µM, 7x7, partner max 3 µM)	-0.0315	0.0165	0.0306	0.0306	0.0005	-0.0225	-0.0066	0.0384	0.0627	-0.0078	-0.0113	0.0231	0.0447	0.0425	0.039	0.0067	-0.0235	0.0708	0.0054	0.0066
COc1cc2ncnc(Nc3ccc(F)c(Cl)c3)c2cc1OCCCN1CCOCC1 [Gefitinib] + CC(C)n1c(=O)n(C)c2cnc3cc(F)c(-c4ccc(OCCCN5CCCCC5)nc4)cc3c21 [AZD1390] (first compound max 10 µM, 7x7, partner max 0.3 µM)	-0.0852	-0.0856	-0.033	-0.0621	-0.0681	-0.0157	-0.0352	-0.0882	-0.0364	-0.111	-0.0401	-0.0624	-0.0109	-0.0614	-0.0152	-0.0573	-0.0511	-0.0432	-0.0707	0.003
CN(CCO)CC[C@H](CSc1ccccc1)Nc1ccc(S(=O)(=O)NC(=O)c2ccc(N3CCC([C@@H](O)c4ccccc4-c4ccc(Cl)cc4)CC3)cc2)cc1S(=O)(=O)C(F)(F)F [AZD4320] + Cc1cc2ncnn2cc1Nc1ncc2c(n1)n(C1CCOCC1)c(=O)n2C [AZD7648] (first compound max 1 µM, 7x7, partner max 10 µM)	0.0074	-0.0054	0.0064	-0.0091	-0.0229	-0.0255	-0.0441	-0.0203	-0.0594	-0.0684	-0.0059	-0.0405	-0.0189	-0.0353	-0.002	0.0444	-0.042	-0.0222	-0.0715	0.0115
NC1(C(=O)N[C@@H](CCO)c2ccc(Cl)cc2)CCN(c2ncnc3[nH]ccc23)CC1 [Capivasertib] + CC(C)n1c(=O)n(C)c2cnc3cc(F)c(-c4ccc(OCCCN5CCCCC5)nc4)cc3c21 [AZD1390] (first compound max 10 µM, 7x7, partner max 0.3 µM)	-0.0656	-0.0368	-0.0325	-0.0509	-0.0098	-0.0156	-0.0965	-0.0436	-0.0318	-0.0754	-0.0658	-0.0549	-0.0452	0.0033	-0.018	-0.0116	-0.0908	-0.111	-0.0447	-0.193
COc1nnc2ccc(N3CCC(c4ccc(OCCN5CCN(C)C(=O)[C@H]5C)cc4)CC3)nn12 [AZD5153] + C=CCn1c(=O)c2cnc(Nc3ccc(N4CCN(C)CC4)cc3)nc2n1-c1cccc(C(C)(C)O)n1 [AZD1775] (first compound max 1 µM, partner max 1 µM)	-0.0519	-0.11	-0.0502	-0.0323	-0.0679	0.0014	-0.0294	-0.0761	-0.0563	-0.0287	-0.0021	0.0398	-0.074	0.064	0.0148	-0.0578	0.0108	-0.0845	0.0033	-0.0454
NC1(C(=O)N[C@@H](CCO)c2ccc(Cl)cc2)CCN(c2ncnc3[nH]ccc23)CC1 [Capivasertib] + Cn1cnc2c(F)c(Nc3ccc(Br)cc3Cl)c(C(=O)NOCCO)cc21 [Selumetinib] (first compound max 10 µM, 7x7, partner max 10 µM)	0.021	0.071	0.0373	-0.0307	0.0276	-0.0214	-0.0277	0.0049	-0.0548	-0.0398	0.0683	0.0099	0.0682	0.0024	0.15	0.117	0.0495	0.0724	-0.0014	0.0106
Cn1cnc2c(F)c(Nc3ccc(Br)cc3Cl)c(C(=O)NOCCO)cc21 [Selumetinib] + CC(C)n1c(=O)n(C)c2cnc3cc(F)c(-c4ccc(OCCCN5CCCCC5)nc4)cc3c21 [AZD1390] (first compound max 10 µM, 7x7, partner max 0.3 µM)	-0.073	-0.0442	-0.0148	-0.042	-0.033	-0.0201	-0.0337	0.0004	-0.0529	-0.0409	0.0182	-0.0361	-0.0171	-0.0171	0.0544	0.0847	-0.0365	-0.0365	-0.0237	0.0029
